Data published in patent US9302999B2, “Substituted triazoles as herbicides” (E. I. DU PONT DE NEMOURS AND COMPANY, priority 2012, dated 2016).

Assays:
Format in all cases: in vivo
[1] = test system: barnyardgrass (Echinochloa crus-galli); assay: Test A pre-/postemergence: barnyardgrass; conditions: for Barnyardgrass plant response rating: Postemergence; for Plant response rating, Barnyardgrass: Preemergence
In short: (§1)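 Plants in loam–sand blend were treated with test chemicals in non-phytotoxic solvent with surfactant, either as preemergence directed soil spray or postemergence at 2–10 cm, one- to two-leaf stage. After about ten days in greenhouse, injury was rated visually against untreated controls on a 0–100 scale (100 = complete control).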

[2] = test system: ducksalad (Heteranthera limosa); assay: Test C flooded paddy test: ducksalad; conditions: scale 0 to 100 (0 no effect, 100 complete control)
In short: (§2)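 Rating: visual, 0–100 (100 = complete control), versus untreated controls after 13 to 15 greenhouse days. Treatment went into paddy water held at 3 cm over the soil, on plants grown to two leaves.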

[3] = test system: corn (Zea mays); assay: Test A pre-/postemergence: corn; conditions: for Corn plant response rating: Postemergence; for Plant response rating, Corn: Preemergence
In short: as §1

[4] = test system: sedge, umbrella (small-flower umbrella sedge, Cyperus difformis); assay: Test C flooded paddy test: sedge, umbrella; conditions: scale 0 to 100 (0 no effect, 100 complete control)
In short: as §2

[5] = test system: rice (Oryza sativa); assay: Test C flooded paddy test: rice; conditions: scale 0 to 100 (0 no effect, 100 complete control)
In short: as §2

[6] = test system: pigweed (Amaranthus retroflexus); assay: Test A pre-/postemergence: pigweed; conditions: for Pigweed plant response rating: Postemergence; for Plant response rating, Pigweed: Preemergence
In short: as §1

[7] = test system: foxtail, giant (giant foxtail, Setaria faberii); assay: Test A pre-/postemergence: foxtail, giant; conditions: for Foxtail, Giant plant response rating: Postemergence; for Plant response rating, Foxtail, Giant: Preemergence
In short: as §1

[8] = test system: wheat (Triticum aestivum); assay: Test A pre-/postemergence: wheat; conditions: for Wheat plant response rating: Postemergence; for Plant response rating, Wheat: Preemergence
In short: as §1

[9] = test system: barnyardgrass (Echinochloa crus-galli); assay: Test C flooded paddy test: barnyardgrass; conditions: scale 0 to 100 (0 no effect, 100 complete control)
In short: as §2

[10] = test system: velvetleaf (Abutilon theophrasti); assay: Test A pre-/postemergence: velvetleaf; conditions: for Velvetleaf plant response rating: Postemergence; for Plant response rating, Velvetleaf: Preemergence
In short: as §1

[11] = test system: morningglory (Ipomoea spp.); assay: Test A pre-/postemergence: morningglory; conditions: for Morningglory plant response rating: Postemergence; for Plant response rating, Morningglory: Preemergence
In short: as §1

[12] = test system: crabgrass, large (large crabgrass, Digitaria sanguinalis); assay: Test A pre-/postemergence: crabgrass, large; conditions: for Crabgrass, Large plant response rating: Postemergence; for Plant response rating, Crabgrass, Large: Preemergence
In short: as §1

[13] = 125 g ai/ha, 0 to 100 scale, 0 is no effect, 100 is complete control
[14] = 500 g ai/ha, visual rating on 0 to 100 scale (0 no effect, 100 complete control), approximately ten days
[15] = 125 g ai/ha, 0 to 100 scale (0 no effect, 100 complete control)
[16] = 500 g ai/ha, 0 to 100 scale, 0 is no effect, 100 is complete control
[17] = Flood (flooded paddy test), 62 g ai/ha, visual rating after 13 to 15 days
[18] = Flood (flooded paddy test), 125 g ai/ha, visual rating after 13 to 15 days
[19] = Flood (flooded paddy test), 250 g ai/ha, visual rating after 13 to 15 days

In the case of `Cc1nn(-c2ccc(C(F)(F)F)cc2)nc1Oc1cnn(CC(F)(F)F)c1` [Compound 74], the “Barnyardgrass plant response rating” value [1, 13] is reported as 0, the “Barnyardgrass plant response rating” value [1, 14] is reported as 0 and the “Plant response rating, Barnyardgrass” value [1, 15] is reported as 0. The “Plant response rating, Barnyardgrass” value [1, 16] was 0, the “Plant response rating, Ducksalad” value [2, 17] was 0 and the “Plant response rating, Ducksalad” value [2, 18] was 0. The “Plant response rating, Ducksalad” value [2, 19] was 0, the “Plant response rating, Ducksalad” value ([2]; Flood, 31 g ai/ha) was 0 and the “Corn plant response rating” value [3, 13] was 0. For the same compound, the “Corn plant response rating” value [3, 14] was 0, the “Plant response rating, Corn” value [3, 15] was 0 and the “Plant response rating, Corn” value [3, 16] was 0. For the same compound, the “Plant response rating, Sedge, Umbrella” value [4, 17] was 0, the “Plant response rating, Sedge, Umbrella” value [4, 18] was 0 and the “Plant response rating, Sedge, Umbrella” value [4, 19] was 0. The “Plant response rating, Sedge, Umbrella” value ([4]; Flood, 31 g ai/ha) was 0, the “Plant response rating, Rice” value [5, 17] was 0 and the “Plant response rating, Rice” value [5, 18] was 0. For the same compound, the “Plant response rating, Rice” value [5, 19] was 0, the “Plant response rating, Rice” value ([5]; Flood, 31 g ai/ha) was 0 and the “Pigweed plant response rating” value [6, 13] was 0. For the same compound, the “Pigweed plant response rating” value [6, 14] was 0, the “Plant response rating, Pigweed” value [6, 15] was 0 and the “Plant response rating, Pigweed” value [6, 16] was 0. The “Foxtail, Giant plant response rating” value [7, 13] was 0, the “Foxtail, Giant plant response rating” value [7, 14] was 0 and the “Plant response rating, Foxtail, Giant” value [7, 15] was 0. For the same compound, the “Plant response rating, Foxtail, Giant” value [7, 16] was 0, the “Wheat plant response rating” value [8, 13] was 0 and the “Wheat plant response rating” value [8, 14] was 0. For the same compound, the “Plant response rating, Wheat” value [8, 15] was 0, the “Plant response rating, Wheat” value [8, 16] was 0 and the “Plant response rating, Barnyardgrass” value [9, 17] was 0. The “Plant response rating, Barnyardgrass” value [9, 18] was 0, the “Plant response rating, Barnyardgrass” value [9, 19] was 0 and the “Plant response rating, Barnyardgrass” value ([9]; Flood, 31 g ai/ha) was 0. The “Velvetleaf plant response rating” value [10, 13] was 0, the “Velvetleaf plant response rating” value [10, 14] was 0 and the “Plant response rating, Velvetleaf” value [10, 15] was 0. For the same compound, the “Plant response rating, Velvetleaf” value [10, 16] was 0, the “Morningglory plant response rating” value [11, 13] was 0 and the “Morningglory plant response rating” value [11, 14] was 0. For the same compound, the “Plant response rating, Morningglory” value [11, 15] was 0, the “Plant response rating, Morningglory” value [11, 16] was 0 and the “Crabgrass, Large plant response rating” value [12, 13] was 0. For the same compound, the “Crabgrass, Large plant response rating” value [12, 14] was 0, the “Plant response rating, Crabgrass, Large” value [12, 15] was 0 and the “Plant response rating, Crabgrass, Large” value [12, 16] was 0.
For `COc1nn(-c2ccc(C(F)(F)F)cc2)nc1C(=O)c1ccnc(C(F)(F)F)c1` [Compound 75], the “Barnyardgrass plant response rating” value [1, 13] was 0, the “Barnyardgrass plant response rating” value [1, 14] was 10 and the “Plant response rating, Barnyardgrass” value [1, 15] was 10. The “Plant response rating, Barnyardgrass” value [1, 16] was 20, the “Plant response rating, Ducksalad” value [2, 17] was 0 and the “Plant response rating, Ducksalad” value [2, 18] was 0. The “Plant response rating, Ducksalad” value [2, 19] was 0, the “Plant response rating, Ducksalad” value ([2]; Flood, 31 g ai/ha) was 0 and the “Corn plant response rating” value [3, 13] was 0. The “Corn plant response rating” value [3, 14] was 10, the “Plant response rating, Corn” value [3, 15] was 0 and the “Plant response rating, Corn” value [3, 16] was 0. For the same compound, the “Plant response rating, Sedge, Umbrella” value [4, 17] was 0, the “Plant response rating, Sedge, Umbrella” value [4, 18] was 0 and the “Plant response rating, Sedge, Umbrella” value [4, 19] was 0. The “Plant response rating, Sedge, Umbrella” value ([4]; Flood, 31 g ai/ha) was 0, the “Plant response rating, Rice” value [5, 17] was 0 and the “Plant response rating, Rice” value [5, 18] was 0. For the same compound, the “Plant response rating, Rice” value [5, 19] was 0, the “Plant response rating, Rice” value ([5]; Flood, 31 g ai/ha) was 0 and the “Pigweed plant response rating” value [6, 13] was 30. For the same compound, the “Pigweed plant response rating” value [6, 14] was 60, the “Plant response rating, Pigweed” value [6, 15] was 30 and the “Plant response rating, Pigweed” value [6, 16] was 40. For the same compound, the “Foxtail, Giant plant response rating” value [7, 13] was 10, the “Foxtail, Giant plant response rating” value [7, 14] was 20 and the “Plant response rating, Foxtail, Giant” value [7, 15] was 50. For the same compound, the “Plant response rating, Foxtail, Giant” value [7, 16] was 90, the “Wheat plant response rating” value [8, 13] was 0 and the “Wheat plant response rating” value [8, 14] was 0. The “Plant response rating, Wheat” value [8, 15] was 0, the “Plant response rating, Wheat” value [8, 16] was 10 and the “Plant response rating, Barnyardgrass” value [9, 17] was 0. The “Plant response rating, Barnyardgrass” value [9, 18] was 0, the “Plant response rating, Barnyardgrass” value [9, 19] was 0 and the “Plant response rating, Barnyardgrass” value ([9]; Flood, 31 g ai/ha) was 0. The “Velvetleaf plant response rating” value [10, 13] was 10, the “Velvetleaf plant response rating” value [10, 14] was 10 and the “Plant response rating, Velvetleaf” value [10, 15] was 0. For the same compound, the “Plant response rating, Velvetleaf” value [10, 16] was 0, the “Morningglory plant response rating” value [11, 13] was 0 and the “Morningglory plant response rating” value [11, 14] was 30. The “Crabgrass, Large plant response rating” value [12, 13] was 10, the “Crabgrass, Large plant response rating” value [12, 14] was 20 and the “Plant response rating, Crabgrass, Large” value [12, 15] was 20. For the same compound, the “Plant response rating, Crabgrass, Large” value [12, 16] was 70.
For `Cc1nn(-c2cccc(Cl)c2)nc1C(=O)c1cccc(C(F)(F)F)c1` [Compound 76], the “Barnyardgrass plant response rating” value [1, 13] was 0, the “Barnyardgrass plant response rating” value [1, 14] was 20 and the “Plant response rating, Barnyardgrass” value [1, 15] was 0. For the same compound, the “Plant response rating, Barnyardgrass” value [1, 16] was 0, the “Plant response rating, Ducksalad” value [2, 17] was 0 and the “Plant response rating, Ducksalad” value [2, 18] was 0. For the same compound, the “Plant response rating, Ducksalad” value [2, 19] was 0, the “Plant response rating, Ducksalad” value ([2]; Flood, 31 g ai/ha) was 0 and the “Corn plant response rating” value [3, 13] was 10. The “Corn plant response rating” value [3, 14] was 20, the “Plant response rating, Corn” value [3, 15] was 0 and the “Plant response rating, Corn” value [3, 16] was 0. For the same compound, the “Plant response rating, Sedge, Umbrella” value [4, 17] was 0, the “Plant response rating, Sedge, Umbrella” value [4, 18] was 0 and the “Plant response rating, Sedge, Umbrella” value [4, 19] was 0. The “Plant response rating, Sedge, Umbrella” value ([4]; Flood, 31 g ai/ha) was 0, the “Plant response rating, Rice” value [5, 17] was 0 and the “Plant response rating, Rice” value [5, 18] was 0. The “Plant response rating, Rice” value [5, 19] was 0, the “Plant response rating, Rice” value ([5]; Flood, 31 g ai/ha) was 0 and the “Pigweed plant response rating” value [6, 13] was 50. The “Pigweed plant response rating” value [6, 14] was 60, the “Plant response rating, Pigweed” value [6, 15] was 0 and the “Plant response rating, Pigweed” value [6, 16] was 20. For the same compound, the “Foxtail, Giant plant response rating” value [7, 13] was 10, the “Foxtail, Giant plant response rating” value [7, 14] was 20 and the “Plant response rating, Foxtail, Giant” value [7, 15] was 10. For the same compound, the “Plant response rating, Foxtail, Giant” value [7, 16] was 80, the “Wheat plant response rating” value [8, 13] was 0 and the “Wheat plant response rating” value [8, 14] was 20. For the same compound, the “Plant response rating, Wheat” value [8, 15] was 0, the “Plant response rating, Wheat” value [8, 16] was 0 and the “Plant response rating, Barnyardgrass” value [9, 17] was 0. The “Plant response rating, Barnyardgrass” value [9, 18] was 0, the “Plant response rating, Barnyardgrass” value [9, 19] was 0 and the “Plant response rating, Barnyardgrass” value ([9]; Flood, 31 g ai/ha) was 0. The “Velvetleaf plant response rating” value [10, 13] was 0, the “Velvetleaf plant response rating” value [10, 14] was 10 and the “Plant response rating, Velvetleaf” value [10, 15] was 0. For the same compound, the “Plant response rating, Velvetleaf” value [10, 16] was 0, the “Morningglory plant response rating” value [11, 13] was 10 and the “Morningglory plant response rating” value [11, 14] was 20. For the same compound, the “Plant response rating, Morningglory” value [11, 15] was 0, the “Plant response rating, Morningglory” value [11, 16] was 0 and the “Crabgrass, Large plant response rating” value [12, 13] was 10. The “Crabgrass, Large plant response rating” value [12, 14] was 30, the “Plant response rating, Crabgrass, Large” value [12, 15] was 10 and the “Plant response rating, Crabgrass, Large” value [12, 16] was 40.
